According to ChEMBL document CHEMBL3879891, “Hydrazone compounds and their use” (2011):

Key:
[1] = biological target: T1, Transient receptor potential cation channel subfamily M member 5 (Mus musculus) (UniProt Q9JJH7); assay: Activation of TRPM5 in mouse GLUTag cells assessed as induction of 0.3 mM glucose-mediated GLP-1 secretion after 2 hrs by ELISA; assay type: cell-based
T1 sequence (whole entry): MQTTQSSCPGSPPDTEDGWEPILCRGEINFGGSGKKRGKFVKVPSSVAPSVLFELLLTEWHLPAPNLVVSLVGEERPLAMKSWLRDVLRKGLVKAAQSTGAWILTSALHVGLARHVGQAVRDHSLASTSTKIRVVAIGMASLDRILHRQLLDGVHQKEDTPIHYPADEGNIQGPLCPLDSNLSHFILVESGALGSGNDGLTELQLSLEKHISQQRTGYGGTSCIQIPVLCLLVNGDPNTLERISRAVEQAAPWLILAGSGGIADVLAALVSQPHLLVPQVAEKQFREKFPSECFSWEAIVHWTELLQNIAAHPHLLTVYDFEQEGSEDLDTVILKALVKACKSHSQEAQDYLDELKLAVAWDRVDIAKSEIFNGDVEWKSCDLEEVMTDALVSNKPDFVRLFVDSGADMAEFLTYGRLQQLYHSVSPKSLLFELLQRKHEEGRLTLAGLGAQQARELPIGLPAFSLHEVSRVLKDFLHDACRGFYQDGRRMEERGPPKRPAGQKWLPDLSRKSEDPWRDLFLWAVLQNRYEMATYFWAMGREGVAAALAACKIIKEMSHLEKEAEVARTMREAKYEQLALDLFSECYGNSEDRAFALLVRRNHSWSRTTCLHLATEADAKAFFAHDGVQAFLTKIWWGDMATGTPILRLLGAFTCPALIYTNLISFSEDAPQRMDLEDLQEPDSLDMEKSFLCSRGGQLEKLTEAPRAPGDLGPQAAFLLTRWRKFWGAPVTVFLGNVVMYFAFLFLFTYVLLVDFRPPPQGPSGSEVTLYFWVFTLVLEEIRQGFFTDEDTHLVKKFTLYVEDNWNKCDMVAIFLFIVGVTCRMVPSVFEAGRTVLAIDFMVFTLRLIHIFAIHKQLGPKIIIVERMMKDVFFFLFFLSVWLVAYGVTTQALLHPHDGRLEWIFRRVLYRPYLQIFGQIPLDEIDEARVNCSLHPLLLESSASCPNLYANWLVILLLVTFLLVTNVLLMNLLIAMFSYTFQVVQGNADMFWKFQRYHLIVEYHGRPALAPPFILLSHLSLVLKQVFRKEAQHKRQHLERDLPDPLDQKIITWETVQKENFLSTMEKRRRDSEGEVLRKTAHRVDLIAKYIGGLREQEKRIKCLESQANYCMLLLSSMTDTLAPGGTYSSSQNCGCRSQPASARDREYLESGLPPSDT

[2] = biological target: T1, Transient receptor potential cation channel subfamily M member 5 (Mus musculus); assay: Activation of TRPM5 in SV40 expressing transgenic mouse Beta-TC-6 cells assessed as induction of 1 mM glucose-mediated insulin secretion after 2 hrs by ELISA
[3] = biological target: Transient receptor potential cation channel, subfamily M, member 5 (Rattus norvegicus) (UniProt A0A8I6AG64); assay: Activation of TRPM5 in Sprague-Dawley rat primary islets assessed as induction of 12 mM glucose-mediated insulin secretion after 3 hrs by ELISA
Sequence of Transient receptor potential cation channel, subfamily M, member 5 (Rattus norvegicus) (A0A8I6AG64 as listed by the source): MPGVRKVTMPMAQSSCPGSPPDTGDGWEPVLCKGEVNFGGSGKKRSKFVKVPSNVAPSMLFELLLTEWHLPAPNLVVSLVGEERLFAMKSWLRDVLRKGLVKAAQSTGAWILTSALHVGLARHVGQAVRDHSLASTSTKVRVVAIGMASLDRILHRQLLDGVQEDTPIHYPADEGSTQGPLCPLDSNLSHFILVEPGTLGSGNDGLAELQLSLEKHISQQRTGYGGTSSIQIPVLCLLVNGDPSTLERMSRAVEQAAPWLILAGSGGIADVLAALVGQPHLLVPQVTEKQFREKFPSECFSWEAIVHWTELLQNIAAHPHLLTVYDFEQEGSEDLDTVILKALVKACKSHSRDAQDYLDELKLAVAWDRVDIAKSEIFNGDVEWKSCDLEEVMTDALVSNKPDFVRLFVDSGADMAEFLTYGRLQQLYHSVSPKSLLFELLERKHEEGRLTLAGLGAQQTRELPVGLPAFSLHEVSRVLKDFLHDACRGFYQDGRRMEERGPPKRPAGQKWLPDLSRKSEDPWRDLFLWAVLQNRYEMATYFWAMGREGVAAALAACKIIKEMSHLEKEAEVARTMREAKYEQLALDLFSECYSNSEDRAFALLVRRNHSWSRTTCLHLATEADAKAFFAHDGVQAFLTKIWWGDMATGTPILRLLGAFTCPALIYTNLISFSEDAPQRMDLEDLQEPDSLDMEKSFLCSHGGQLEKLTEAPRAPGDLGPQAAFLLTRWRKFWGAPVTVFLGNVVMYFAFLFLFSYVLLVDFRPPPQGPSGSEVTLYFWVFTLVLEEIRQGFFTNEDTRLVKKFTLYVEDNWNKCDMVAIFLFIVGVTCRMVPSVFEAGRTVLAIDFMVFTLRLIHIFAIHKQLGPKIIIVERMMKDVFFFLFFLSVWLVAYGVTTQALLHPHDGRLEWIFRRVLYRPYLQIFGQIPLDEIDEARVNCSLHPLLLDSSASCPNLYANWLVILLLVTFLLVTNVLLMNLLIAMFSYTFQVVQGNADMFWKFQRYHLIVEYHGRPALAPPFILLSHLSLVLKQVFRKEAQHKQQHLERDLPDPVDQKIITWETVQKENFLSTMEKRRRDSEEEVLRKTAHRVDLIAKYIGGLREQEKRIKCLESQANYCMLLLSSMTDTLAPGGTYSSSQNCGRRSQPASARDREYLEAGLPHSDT

Activity [1]: Dose-dependent effect
Activity [2]: Dose-dependent effect
Activity [3]: Dose-dependent effect
Compound: Cc1cc(/C=N/NC(=O)[C@@H]2C[C@H]2c2ccccc2)cc2cccnc12 (relative stereo)
